Laboratory results as given in patent US11168134B2, “Methods of treating androgen deprivation therapy resistant prostate cancer” (Fondazione per l'Istituto Oncologico di Ricerca (IOR), priority 2018, dated 2021).

How the values were obtained:
[1] = tested on: prostate tumors of CTX Pten^pc−/− mice; experiment: CXCR2 antagonist treatment of surgically castrated Pten^pc−/− mice; format: in vivo, mouse
Procedure: All mice were maintained under specific pathogen-free conditions in the IRB facility and experiments were performed according to state guidelines and approved by the local ethics committee. Male C57BL/6 or FVB mice 6-8 weeks of age were purchased from Jackson Laboratories (Envigo), and acclimated for at least a week before use. C57BL/6 IL-23p19KO (IL23ko) mice were kindly provided by Prof. Federica Sallusto (IRB, Bellinzona). Pten^pc−/− mice were generated and genotyped as previously described. […] Mice were monitored postoperatively for recovery from anesthesia and checked daily for 2 days postoperatively. […] Tumor growth was monitored daily by measuring the tumor size with caliper. […]
Tumors were disaggregated and digested in collagenase D and DNAse for 30 minutes at 37° C. to obtain single-cell suspension. […] Data were analyzed using FlowJo software (TreeStar, Ashland, Oreg.).
(§1) RNA isolation (TRIzol, Qiagen) and retro-transcription with SuperScriptIII (Invitrogen, 11752-250) were performed according to the manufacturer's instructions. Quantitative PCR (qPCR) reactions (Bio-Rad) were performed using KAPA SYBR FAST qPCR green (KK4605; Applied Biosystems) and the specific primers reported below. […]

[2] = tested on: TRAMP-C1 cells; experiment: CXCR2 antagonist treatment of castrated TRAMP-C1 allograft mice; format: in vivo, mouse
Procedure: (§2) All mice were maintained under specific pathogen-free conditions in the IRB facility and experiments were performed according to state guidelines and approved by the local ethics committee. Male C57BL/6 or FVB mice 6-8 weeks of age were purchased from Jackson Laboratories (Envigo), and acclimated for at least a week before use. C57BL/6 IL-23p19KO (IL23ko) mice were kindly provided by Prof. Federica Sallusto (IRB, Bellinzona). Pten^pc−/− mice were generated and genotyped as previously described. Female Pten^loxP/loxP mice were crossed with male PB-Cre4 transgenic mice and genotyped for Cre using following primers: primer 1 (5′-[…]-3′) and primer 2 (5′-[…]-3′) for PTEN^loxP/loxP; primer 1 (5′ […] 3′) and primer 2 (5′CAGCCACCAGCTTGCATGA 3′) for Probasin-CRE. Surgical castration was performed under anesthesia with isoflurane. Mice were monitored postoperatively for recovery from anesthesia and checked daily for 2 days postoperatively. Surgical skin clips were removed on postoperative day 5. Mice undergoing treatment were administered control vehicle or therapeutic doses of the appropriate agents. Any mouse suffering distress or greater than 15% weight loss during treatment was euthanized by CO2 asphyxiation. At the completion of study, mice were euthanized by CO2 asphyxiation and tissue was collected for histology, mRNA analysis, protein analysis, and single cell suspensions for flow cytometry. For allograft experiments, 2.5×10^6 TRAMP-C1 cells, 2.5×10^6 TRAMP-C1 IL23RKO, or 2×10^6 MyC-CaP cells were injected subcutaneously into the flank of male respectively C57BL/6 or FVB mice. When tumors were approximately 100 mm^3, mice were randomized to the treatment groups. Tumor growth was monitored daily by measuring the tumor size with caliper. The tumor volume was estimated by calculating R1*R2*R3*4/3π, where R1 and R2 are the longitudinal and lateral radii, and R3 is the thickness of tumor protruding from the surface of normal skin. Animals were sacrificed when the tumor reached approximately 600 mm^3.
(§3) αCXCR2 (AZD5069; AstraZeneca) was administered with daily intraperitoneal injections at a final concentration of 100 mg/kg on a Monday through Friday schedule. Control animals received vehicle. Enzalutamide (APExBio) was administered daily by oral gavage with a dose of 30 mg/kg/day on a Monday through Friday schedule. Rat anti-IL23 antibody (100 ng per mouse; G23-8; IgG1, kappa; eBioscience) or rat IgG1 isotype control (eBioscience) were administered weekly via intraperitoneal injection.
(§4) Tumors were disaggregated and digested in collagenase D and DNAse for 30 minutes at 37° C. to obtain single-cell suspension. For intracellular cytokine detection cells where stimulated for 5 hours with PMA/ionomycin. After neutralization of unspecific binding with αCD16/CD32 (clone 93), single-cell suspensions were stained with specific mAb (primary antibodies directly conjugated) to assess the phenotype. […] Data were analyzed using FlowJo software (TreeStar, Ashland, Oreg.).
as §1

[3] = tested on: MyC-CaP cells; experiment: CXCR2 antagonist treatment of castrated MyC-CaP allograft mice; format: in vivo, mouse
Procedure: as §2, §3, §4, §1

[4] = tested on: TRAMP-C1 cells; experiment: In vitro culture of prostate cancer cells under full androgen deprivation (F.A.D.); format: cell-based, mouse
Procedure: Prostate cancer cell lines were starved in Charcoal Stripped FBS (CS-FBS) medium for 72 h and then cultured with RPMI 1640 containing 10% heat-inactivated FBS (normal medium) or kept in full androgen deprivation medium (RPMI 1640 containing 10% heat-inactivated Charcoal Stripped-FBS plus Enzalutamide 10 μM; F.A.D.). Then, the cells were stimulated with or without condition media obtained from activated BM-derived MDSCs, or recombinant IL23 (100 ng/ml; R&D System), with or without αRORγ (5 μM; SR2211; Calbiochem®). Then, the cells were analyzed for Crystal Violet assay or stained with Annexin V/7AAD or collected for RNA extraction.
RNA isolation (TRIzol, Qiagen) and retro-transcription with SuperScriptIII (Invitrogen, 11752-250) were performed according to the manufacturer's instructions. Quantitative PCR (qPCR) reactions (Bio-Rad) were performed using KAPA SYBR FAST qPCR green (KK4605; Applied Biosystems) and the specific primers reported below. Primer sequences were obtained from PrimerBank (http://pga.mgh.harvard.edu/primerbank/index.html) or BIORAD. Each expression value was normalized by HPRT or GADPH level as reference.

[5] = tested on: castration resistant prostate tumors of Pten^pc−/− mice; experiment: Preclinical trial in castration-resistant Pten^pc−/− mice (αIL23, ENZA, ENZA+αIL23); format: in vivo, mouse; settings: ENZA 30 mg/kg/day oral alone
Procedure: All mice were maintained under specific pathogen-free conditions in the IRB facility and experiments were performed according to state guidelines and approved by the local ethics committee. Male C57BL/6 or FVB mice 6-8 weeks of age were purchased from Jackson Laboratories (Envigo), and acclimated for at least a week before use. C57BL/6 IL-23p19KO (IL23ko) mice were kindly provided by Prof. Federica Sallusto (IRB, Bellinzona). Pten^pc−/− mice were generated and genotyped as previously described. Female Pten^loxP/loxP mice were crossed with male PB-Cre4 transgenic mice and genotyped for Cre using following primers: primer 1 (5′-[…]-3′) and primer 2 (5′-[…]-3′) for PTEN^loxP/loxP; primer 1 (5′ […] 3′) and primer 2 (5′CAGCCACCAGCTTGCATGA 3′) for Probasin-CRE. Surgical castration was performed under anesthesia with isoflurane. Mice were monitored postoperatively for recovery from anesthesia and checked daily for 2 days postoperatively. Surgical skin clips were removed on postoperative day 5. […] Tumor growth was monitored daily by measuring the tumor size with caliper. […]
For immunohistochemistry (IHC), tissues were fixed in 10% formalin (ThermoScientific, 5701) and embedded in paraffin in accordance with standard procedures. […] All the quantifications have been done using the public online software ImmunoRatio (153.1.200.58:8080/iimunoratio/). […]

## C[C@@H](Oc1cc(NS(=O)(=O)N2CCC2)nc(SCc2cccc(F)c2F)n1)[C@@H](O)CO [AZD5069]
[1]; AZD5069 100 mg/kg i.p. daily Monday-Friday, flow cytometry (FIG. 6f)
  tumor infiltration of PMN-MDSCs: strongly reduced the tumor infiltration of PMN-MDSCs
[1]; judged by tumor volume and levels of AR target genes, untreated mice developed CRPCs four months after castration
  progression to CRPC: did not progress to CRPCs
[2]; castrated C57BL/6 mice with s.c. TRAMP-C1 tumors, AZD5069 100 mg/kg i.p., flow cytometry (FIG. 7a)
  tumor infiltration of PMN-MDSCs: strongly reduced the tumor infiltration of PMN-MDSCs
[2]; castrated TRAMP-C1 allograft mice
  emergence of CRPC: delayed the emergence of CRPC
[2]; castrated TRAMP-C1 allograft mice (FIG. 7c)
  tumor size: decreased tumor size
[2]; castrated TRAMP-C1 allograft mice, Kaplan-Meier (FIG. 7d)
  survival: longer survival
[2]; castrated TRAMP-C1 allograft mice, qRT-PCR (FIG. 7b)
  level of AR target genes in tumors: decreased
[3]; castrated FVB mice with s.c. MyC-CaP tumors, AZD5069 100 mg/kg i.p., flow cytometry (FIG. 7e)
  tumor infiltration of PMN-MDSCs: strongly reduced the tumor infiltration of PMN-MDSCs
[3]; castrated MyC-CaP allograft mice
  emergence of CRPC: delayed the emergence of CRPC
[3]; castrated MyC-CaP allograft mice (FIG. 7g)
  tumor size: decreased tumor size
[3]; castrated MyC-CaP allograft mice, Kaplan-Meier (FIG. 7h)
  survival: longer survival
[3]; castrated MyC-CaP allograft mice, qRT-PCR (FIG. 7f)
  level of AR target genes in tumors: decreased
[4]; TRAMP-C1 cells in F.A.D., 24 h of treatment with CXCR2 antagonist (FIG. 6i)
  AR activity (AR target genes, qRT-PCR): did not directly affect
[4]; TRAMP-C1 cells in F.A.D., 72 h of treatment with CXCR2 antagonist (FIG. 6h)
  cell proliferation: did not directly affect

## CNC(=O)c1ccc(N2C(=S)N(c3ccc(C#N)c(C(F)(F)F)c3)C(=O)C2(C)C)cc1F [ENZA, Enzalutamide]
[5]
  treatment effect (glands, tumor volume, proliferation): ineffective

B1: recombinant IL23: recombinant IL23 (100 ng/ml; R&D System) (protein, UniProt Q9NPF7 20-189; P29460 23-328, looked up)
Interleukin-23 subunit alpha: RAVPGGSSPAWTQCQQLSQKLCTLAWSAHPLVGHMDLREEGDEETTNDVPHIQCGDGCDPQGLRDNSQFCLQRIHQGLIFYEKLLGSDIFTGEPSLLPDSPVGQLHASLLGLSQLLQPEGHHWETQQIPSLSPSQPWQRLLLRFKILRSLQAFVAVAARVFAHGAATLSP
Interleukin-12 subunit beta: IWELKKDVYVVELDWYPDAPGEMVVLTCDTPEEDGITWTLDQSSEVLGSGKTLTIQVKEFGDAGQYTCHKGGEVLSHSLLLLHKKEDGIWSTDILKDQKEPKNKTFLRCEAKNYSGRFTCWWLTTISTDLTFSVKSSRGSSDPQGVTCGAATLSAERVRGDNKEYEYSVECQEDSACPAAEESLPIEVMVDAVHKLKYENYTSSFFIRDIIKPDPPKNLQLKPLKNSRQVEVSWEYPDTWSTPHSYFSLTFCVQVQGKSKREKKDRVFTDKTSATVICRKNASISVRAQDRYYSSSWSEWASVPCS
[4]; TRAMP-C1 cells kept in F.A.D., recombinant IL23 100 ng/ml (FIG. 2f-g)
  cell survival (AnnexinV/7AAD): promoted
[4]; TRAMP-C1 cells kept in F.A.D., recombinant IL23 100 ng/ml, 24 h, qRT-PCR (FIG. 2h)
  transcription of androgen receptor target genes: increased transcription of androgen receptor target genes
[4]; TRAMP-C1 cells kept in F.A.D., recombinant IL23 100 ng/ml, 72 h (FIG. 2e)
  cell proliferation: promoted proliferation
